Assay results from patent publication US20090233999A1, “COMPOSITIONS AND THERAPEUTIC METHODS INVOLVING ISOFLAVONES AND ANALOGUES THEREOF” (NOVOGEN RESEARCH PTY LTD, priority 1999, published 2009).

Assays:
IL-6 = test: UVB psoriasis model: immunohistochemical detection of IL-6; type: in vivo, mouse; details: 20 μM topical; 72 h; Skh:hr-1
Protocol: Groups of three Skh:hr-1 mice were exposed to 3×MEdD of UVB radiation, with and without topical treatment with 20 μM Cpd. 18, and were euthanased before and at 24, 48, 72 and 96 h after irradiation, and mid-dorsal skin samples were taken for histological fixation. The samples were fixed for 6 h in Histochoice (Amresco Solon, Ohio), then processed overnight in an automated formalin-ethanol-based system (Tissue Tek VIP; Bayer Diagnostics, Ferntree Gully, Australia) and embedded into paraffin blocks. Sections of 4 μm were cut onto silane-coated slides, de-waxed and rehydrated using xylene followed by graded aqueous ethanol solutions to PBS. […]
The IL-6 was detected by incubation with goat anti-mouse IL-6 antibody (R & D systems) followed biotinylated anti-goat IgG (Vector Laboratories, Burl ingame, CA), before treating with StreptABComplex/HRP (biotinylated horseradish peroxidase and streptavidin; Dako Corporation, CA) for 30 min. […]
The stained sections were examined by light microscopy at 20× magnification and images were captured digitally with a Sony Hyper HAD colour video camera (Sony, Tokyo, Japan). Stain intensity was analysed using a Leica Q500 MC image processing and analysis system (Leica, Cambridge, UK) and semi-quantitated in arbitrary image analysis units as the average intensity of 15 sequential fields across the skin section for each of 3 mice per treatment group. […]

TNFα = test: UVB psoriasis model: cutaneous TNFα by ELISA; type: in vivo, mouse; details: for suppression of UVB-induced TNF-α level: 40 μM topical
From the text: Inbred, 6-8 weeks of age female C57/BL6, C3H/HeN and Skh:hr-1 (hairless) mice were fed normal stock rodent rations and tap water ad libitum. One day prior to UVB irradiation, the dorsal hair of C57/BL6 and C3H/HeN mice was removed by clipping. A single UVB tube (Phillips TL-40W/12 RS, Eindhoven, The Netherlands) emitting a spectrum of 280-365 nm with a peak emission at 310 nm, was used as the light source for the experiments. The radiation was filtered through a sheet of 0.125 mm cellulose acetate (Grafix Plastics, OH, USA) to block wavelengths below 290 nm. Irradiance was measured with an IL 1500 radiometer (International Light Inc. Newburyport, Mass.) with a UVB detector (SEE 240/UVB) calibrated to the spectral output, and recorded as 1.71×10-4 W/cm2. Groups of three female C57/BL6 and C3H/HeN mice were exposed unrestrained in their cages to 7.24 kJ/m2 UVB radiation equal to 3× the minimal erythemal dose (MED) in these haired mice (fur clipped), an exposure of approximately 70 min. Control mice were clipped of fur in the same manner but were not exposed to UVB irradiation. Groups of 3 Skh:hr-1 mice received 3.59 kJ/m2 of UVB, which is equal to 3×MED on hairless mouse skin. Temperature under the radiation source was stabilised during the exposures with surrounding curtains and an electric fan.
Cpd. 18 was dissolved as a 40 mM stock solution in DMSO, then diluted in a vehicle of propylene glycol-ethanol-water 1:2:1 to provide solutions of 0, 5, 10, 20 and 40 μM with […]. The vehicle control base lotion contained 0.001% DMSO. An aliquot of 100 μL of lotion was applied to the dorsum of three mice immediately, 1 h and 2 h after UVB irradiation for 24 h time point measurements, or once daily immediately after and for up to the next four days following irradiation, for later time points, and was spread evenly using a micropipette. Control mice were restrained in the same manner but were not exposed to UVB irradiation.
To determine the effect of UVB irradiation on cutaneous TNFα expression, groups of three C57/BL6 and C3H/HeN mice were euthanased before and at several time points up to 72 h following UVB irradiation, with and without topical treatment with 20 μM Cpd. 18, and the mid-dorsal skin was excised. […] Colour development was stopped after 30 min with 50 μL of 1M H2SO4, and quantitated spectrophotometrically at 405 nm. […]

In the case of `COc1ccc(C2=Cc3ccc(O)cc3OC2)cc1OC` [Cpd. 18, 7-Hydroxy-3′,4′-dimethoxyisoflav-3-ene], the “UVB-induced levels of IL-6 immunopositivity in the epidermis” value (IL-6) is reported as “significantly reduced”, the “suppression of UVB-induced TNF-α level” value (TNFα; C3H/HeN, 3 h post-UVB) is reported as 40% and the “suppression of UVB-induced TNF-α level” value (TNFα; C57/BL6, 3 h post-UVB) is reported as 45%. For the same compound, the “UVB-elevated TNFα levels” value (TNFα; 5-40 μM, dose-dependent, each mouse strain, 3 h post-UVB) was “significantly reduced” and the “TNFα expression, lotion alone” value (TNFα; without UVB) was “no effect”.
